From patent publication US20140024123A1, “Aqueous Solution Containing Partial Ras Polypeptide and Method for Screening Inhibitor of Ras Function” (priority 2011, published 2014)

Tested on: culture cell lines having a mutation in an active form of any one of H-Ras, N-Ras, and K-Ras
Experiment: Cytological activity verification test: anchorage-independent cell growth (soft agar colony formation)
Format: cell-based
Conditions: 0.6% agarose, 37° C., 2 weeks, colonies with diameter of 50 μm or more, relative to compound-free control (100%); FIG. 5
Method: The number of appeared colonies each having a size with a diameter of 50 μm or more was measured. For a medium in which each of the culture cell lines was suspended in a system free of each of the compounds, the number of colonies was similarly measured and used as a control (100%). Each of the compounds was evaluated for its inhibitory activity on colony formation (inhibitory activity on anchorage-independent cell growth) by calculating inhibition ratio for colony formation of the compound administration group relative to the control.

| SMILES | inhibitory activity on colony formation (anchorage-independent cell growth) |
| --- | --- |
| Cc1ccc(NC(=S)NNc2c([N+](=O)[O-])cc(C(F)(F)F)cc2[N+](=O)[O-])cc1Cl [Compound (II)] | found to have a colony formation inhibition effect on each cell |
| O=[N+]([O-])c1cc(C(F)(F)F)cc([N+](=O)[O-])c1NNC(=S)Nc1ccc(F)cc1 [Compound (IV)] | found to have a colony formation inhibition effect on each cell |
| O=[N+]([O-])c1ccc(NNC(=S)Nc2ccc(F)cc2)c([N+](=O)[O-])c1 [Compound (III)] | found to have a colony formation inhibition effect on each cell |

Target: T1, human H-Ras polypeptide (amino acid residues 1 to 166) binding to human c-Raf-1 (amino acid residues 51 to 130) (Homo sapiens, UniProt P01112)
T1 construct: a human H-Ras polypeptide (amino acid residues 1 to 166) was used as Ras; GST (N, cleaved yes); made in house; host or cells: Escherichia coli
T1 sequence (P01112 1-166): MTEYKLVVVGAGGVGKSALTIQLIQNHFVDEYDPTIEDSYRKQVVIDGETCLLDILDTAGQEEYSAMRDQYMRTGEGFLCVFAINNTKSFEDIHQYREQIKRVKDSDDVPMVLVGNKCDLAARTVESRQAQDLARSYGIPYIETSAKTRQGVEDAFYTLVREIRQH
Experiment: Biochemical activity verification test: inhibition of Ras-Raf binding (GST-Raf pull-down of GTPγ[35S]-labeled Ras, scintillation counting)
Conditions: compound at various concentrations in 10% DMSO; FIG. 4
From the text: In this experimental example, a human H-Ras polypeptide (amino acid residues 1 to 166) was used as Ras, and a GTP analog (GTPγS (Roche Diagnostics)) was used as GTP. Further, human c-Raf-1 (amino acid residues 51 to 130) was used as Raf, a target protein of Ras.
A fused protein of Raf, a target protein of Ras, and glutathione S-transferase (GST) was expressed in Escherichia coli using a vector for GST-fused protein expression (pGEX-6P-1 vector (GE Healthcare)). The expressed GST-Raf-fused protein was immobilized onto an affinity carrier for purification (glutathione Sepharose 4B: resin (GE Healthcare)).
GTPγ[^35S] (Perkin Elmer), one of the GTP analogs, was added to Ras from which a GST tag was cleaved with a protease for GST-fused protein cleavage (PreScission protease (GE Healthcare)) to produce radiolabeled Ras.
The resin in the reaction liquid was washed, and then a complex of the GST-Raf-fused protein and the radiolabeled Ras was eluted by adding glutathione. A radioactivity of the eluate was subjected to scintillation counting, to thereby measure a binding activity of Ras to Raf, and inhibitory activities on Ras-Raf binding with various compounds were evaluated.

| SMILES | inhibitory activity on Ras-Raf binding |
| --- | --- |
| Cc1ccc(NC(=S)NNc2c([N+](=O)[O-])cc(C(F)(F)F)cc2[N+](=O)[O-])cc1Cl [Compound (II)] | found to interact with Ras |
| O=[N+]([O-])c1cc(C(F)(F)F)cc([N+](=O)[O-])c1NNC(=S)Nc1ccc(F)cc1 [Compound (IV)] | found to interact with Ras |
| O=[N+]([O-])c1ccc(NNC(=S)Nc2ccc(F)cc2)c([N+](=O)[O-])c1 [Compound (III)] | found to interact with Ras |
